Data set [1] relates to noradrenaline. In words: noradrenaline content lowering after oral administration to rats. In kind it is in vivo, rat. The following applies: five separate oral doses each 300 μmol/kg over 48 hours. As for the experimental part:
(§1) The novel compounds of formulae VII and VIII and their salts are useful for lowering the blood-pressure and for chemical sympathectomy. Thus, for example, after orally administering five separate doses each comprising 300 μmol/kg of L-6,7-diacetoxy-3-amino-hydrocoumarin hydrochloride to rats over a period of 48 hours, the noradrenaline content is lowered in the heart to 28% and in the brain to 85% of the controls. The LD50 of this hydrochloride amounts to 30-60 mg/kg i.v., 250-500 mg/kg s.c. and 1,000-2,000 mg/kg p.o.

Data set [2] can be described thus: LD50 of the hydrochloride. To be noted: in vivo. As for the experimental part:
as §1

Where a name gives a salt, the structure may show the parent alone.

The text below walks through data of patent US3933859A, “Dihydrocoumarin derivatives” (Hoffmann-La Roche, Inc., priority 1970, dated 1976).

In general, LD50 refers to the dose at which mortality reaches 50%. The low end stands for greater toxicity, the high end for lower toxicity. As for `CC(=O)Oc1cc2c(cc1OC(C)=O)OC(=O)[C@@H](N)C2` [L-6,7-diacetoxy-3-aminohydrocoumarin hydrochloride], in data set [1] (brain), the “noradrenaline content in the brain, lowered to % of the controls” value is recorded as 85%. Moreover, in data set [1] (heart), the “noradrenaline content in the heart, lowered to % of the controls” value is reported as 28%. Besides, the LD50 in data set [2] (iv) lay within 30 to 60 mg/kg; in data set [2] (po), 1000 to 2000 mg/kg; in data set [2] (sc), 250 to 500 mg/kg.
